Experimental data from paper PMC8588048, “Discovery of Guanidine Derivatives from Buthus martensii Karsch with Metal-Binding and Cholinesterase Inhibition Properties” (Molecules, 2021).
Entries after “also recorded” stand apart in the source; their conditions may differ. Read-outs that look alike come from different tables or passages of the source.

Legend:
[1] = target: T1, AChE (EC 3.1.1.7, from electric eel) (Electrophorus electricus, UniProt O42275); assay: biochemical; type: biochemical; conditions: for SI for AChE = IC50 BChE/IC50 AChE: selectivity index for AChE over BChE
T1 construct: purchased Sigma-Aldrich (St. Louis, MO, USA)
Procedure: (§1) A Waters Acquity UPLC Class I/Xevo G2Q-Tof mass spectrometer (Milford, MA, USA) was used to obtain the high-resolution ESI-MS (HR-ESI-MS) data. ^1H and ^13C NMR spectra were acquired on a Bruker Avance III 400 spectrometer spectrometer (Karlsruhe, Germany) with TMS as an internal standard. ^1H-^1H DQF-COSY, NOESY, TOCSY, HSQC and HMBC spectra were recorded using standard Bruker programs spectrometer (Topspin 3.5pl6, Karlsruhe, Germany). […] Thin layer chromatography (TLC) analysis was performed on alumina plates coated with silica gel 60 and silica gel 60 RP-18 F254 (Merck) spectrometer (Darmstadt, Germany). Chromatographic separation was performed on self-packed columns with silica gel (Anhui Liangchen Silicon Material Co. Ltd., China) and reversed-phase silica gel (ODS-A 12 nm S-50 μm YMC Co., Kyoto, Japan). AChE (EC 3.1.1.7, from electric eel), BChE (EC 3.1.1.8, from equine serum), 5,5′-dithiobis(2-nitrobenzoic acid) (DTNB), acetylthiocholine iodide (ATCI), and butyrylthiocholine iodide (BTCI) were purchased from Sigma-Aldrich (St. Louis, MO, USA).
(§2) AChE (EC 3.1.1.7, from electric eel) and BChE (EC 3.1.1.8, from equine serum) were purchased from Sigma-Aldrich (St. Louis, MO, USA). […] After reaction for 15 min at 25 °C, 10 μL of 10 mM DTNB and 10 μL of 7.5 mM ATCI (BTCI) were added and then incubated for 40 min at 37 °C. […] Blank groups were set up by replacing the sample solution with 20 μL phosphate buffer (Ac). All tests were performed in triplicate.

[2] = target: T2, BChE (EC 3.1.1.8, from equine serum) (Equus caballus, UniProt P81908); assay: biochemical
T2 construct: purchased Sigma-Aldrich (St. Louis, MO, USA); host or cells: equine serum
Procedure: as §1, §2

[3] = target: T3, peripheral anionic site (PAS) of AChE (Electrophorus electricus, UniProt O42275); type: binding; conditions: test compounds 100 μM, propidium iodide 1 μM, AChE 5U
T3 construct: purchased Sigma-Aldrich (St. Louis, MO, USA)
Procedure: The assay mixture of AChE (5U) was incubated with test compounds (final concentration 100 μM, 150 μL) for 6 h at 25 °C. After reaction, 50 μL Propidium iodide (1 μM) was added. […] The percentage of displacement was calculated by the following expression: 100 − (IFi/IF0 × 100), where IFi and IF0 are the fluorescence intensities with and without the test compounds, respectively.

[4] = target: T4, AChE (Electrophorus electricus, UniProt O42275); assay: Enzyme kinetic analysis against AChE; type: biochemical; conditions: for type of AChE inhibition: Lineweaver–Burk plots, ATCI 3.75–15.00 mM; for reversibility of AChE inhibition: initial velocity versus enzyme concentration, AChE 0.025–0.10 U/mL; for Ki: Dixon and Cornish–Bowden plots
T4 construct: purchased Sigma-Aldrich (St. Louis, MO, USA)
Procedure: […]. Inhibition constants for AChE were determined from Dixon plot (1/Vi vs. (I)) and Cornish–Bowden transformation ((S)/Vi vs. (I)).

[5] = Metal-binding studies (UV spectra); type: physicochemical; conditions: UV 200–400 nm, compound 20 μM, CuCl2, FeCl2, ZnCl2, AlCl3 20 μM, methanol, 30 min
Procedure: The chelating studies were performed on an ultraviolet–visible spectrophotometry meter (HITACHI U-3900H, Tokyo, Japan). The UV absorption spectra of the test compound alone (20 μM, final concentration) or in the presence of CuCl2, FeCl2, ZnCl2 and AlCl3 (20 μM, final concentration) were recorded with the wavelength ranging from 200 to 400 nm after incubating for 30 min in methanol at room temperature.

[6] = means ± SD, at least three independent experiments, read-out: IC50 AChE
[7] = means ± SD, at least three independent experiments, read-out: IC50 BChE

T4 sequence (O42275 24-633): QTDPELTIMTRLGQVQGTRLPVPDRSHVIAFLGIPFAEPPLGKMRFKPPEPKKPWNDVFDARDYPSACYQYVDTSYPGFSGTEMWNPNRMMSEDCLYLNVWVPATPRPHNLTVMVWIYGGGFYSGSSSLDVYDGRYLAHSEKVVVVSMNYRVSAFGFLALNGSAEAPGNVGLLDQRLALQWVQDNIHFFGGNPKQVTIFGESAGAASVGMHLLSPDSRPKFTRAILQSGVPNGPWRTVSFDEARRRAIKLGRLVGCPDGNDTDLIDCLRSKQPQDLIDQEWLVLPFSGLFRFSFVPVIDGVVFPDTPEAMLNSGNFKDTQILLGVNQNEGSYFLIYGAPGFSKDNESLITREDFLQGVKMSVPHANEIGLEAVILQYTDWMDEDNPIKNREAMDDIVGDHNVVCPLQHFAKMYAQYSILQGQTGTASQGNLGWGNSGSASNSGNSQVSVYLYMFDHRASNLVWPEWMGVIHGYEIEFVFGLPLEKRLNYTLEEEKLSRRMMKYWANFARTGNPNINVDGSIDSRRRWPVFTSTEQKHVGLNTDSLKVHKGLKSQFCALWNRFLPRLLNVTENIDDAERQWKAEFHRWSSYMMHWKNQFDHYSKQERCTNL
T1 sequence (O42275 24-633): as above
T2 sequence (P81908 whole entry): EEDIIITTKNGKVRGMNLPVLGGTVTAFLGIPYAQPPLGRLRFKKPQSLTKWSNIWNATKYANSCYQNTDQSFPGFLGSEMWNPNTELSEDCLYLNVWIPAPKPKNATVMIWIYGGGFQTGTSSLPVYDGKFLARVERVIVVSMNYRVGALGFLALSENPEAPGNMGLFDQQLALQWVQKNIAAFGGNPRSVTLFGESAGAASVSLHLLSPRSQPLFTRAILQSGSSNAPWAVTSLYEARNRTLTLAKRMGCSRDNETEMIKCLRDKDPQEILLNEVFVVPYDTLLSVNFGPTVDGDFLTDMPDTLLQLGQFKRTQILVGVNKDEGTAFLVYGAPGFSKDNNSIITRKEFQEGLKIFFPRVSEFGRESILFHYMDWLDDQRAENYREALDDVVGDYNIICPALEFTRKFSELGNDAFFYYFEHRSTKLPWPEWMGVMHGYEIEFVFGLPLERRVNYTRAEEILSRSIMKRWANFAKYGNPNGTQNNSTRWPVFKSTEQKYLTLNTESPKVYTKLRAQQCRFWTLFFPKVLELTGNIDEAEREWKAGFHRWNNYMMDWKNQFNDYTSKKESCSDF
T3 sequence (O42275 24-633): as the sequence (O42275 24-633) above

Row | Compound | IC50 [1, 6] | SI for AChE = IC50 BChE/IC50 AChE [1] | IC50 [2, 7] | Propidium Iodide Displacement [3] | type of AChE inhibition [4] | reversibility of AChE inhibition [4] | Ki ([4]; read-out: inhibition constant Ki,c (competitive component)) | Ki ([4]; read-out: inhibition constant Ki,nc (non-competitive component)) | reversibility of AChE inhibition ([4]; listed as Buthutin A) | metal binding ability toward Cu2+, Fe2+, Zn2+ and Al3+ [5] | IC50 [1] | IC50 AChE [1] | IC50 [2]
1 | N=C(N)NCCCCNC(=O)c1ccccn1 [Compound 2, N-(4-guanidinobutyl)picolinamide] | 61.4 ± 2.34 µM | 1.99 | 123 ± 5.21 µM | 17.95 ± 0.98% | mixed type of inhibition | reversible inhibitors | – | – | – | – | – | – | –
2 | CC(C)CCSS [Compound 4, 3-methylbuthyl hydrodisulfide] | 40.9 ± 3.21 µM | 3.73 | 153 ± 7.22 µM | – | – | – | – | – | – | – | – | – | –
3 | N=C(N)NCCCCNC(=O)c1ccc(O)cc1 [Compound 1, N-(4-guanidinobutyl)-4-hydroxybenzamide] | 7.83 ± 0.06 µM | 6.05 | 47.4 ± 0.95 µM | 18.29 ± 0.53% | mixed type of inhibition | reversible inhibitors | 2.64 ± 0.35 µM | 5.66 ± 0.82 µM | reversible | satisfactory biometal binding abilities; also recorded: potent metal binding ability; also recorded: satisfactory metal-binding properties | – | – | –
4 | C[n+]1cccc(C(=O)[O-])c1 [Compound 3] | – | – | – | – | – | – | – | – | – | satisfactory biometal binding abilities; also recorded: potent metal binding ability; also recorded: satisfactory metal-binding properties | 97.3 ± 4.18 µM | weaker inhibitory effect | 442 ± 7.99 µM
